Experimental findings from patent publication US9061030B2, “sGC stimulators” (IRONWOOD PHARMACEUTICALS, INC., priority 2010, dated 2015) are described below.

Structures are written as SMILES.

What is called Emax is the greatest response seen or fitted, relative to the assay's reference.

Experiment [1] has as its target T1, soluble guanylate cyclase (sGC) (Homo sapiens, UniProt Q02108+Q02153).
T1 construct: endogenously expressing soluble guanylate cyclase (sGC); endogenous in cells; host or cells: HEK293
T1 sequence (Q02153 1-619): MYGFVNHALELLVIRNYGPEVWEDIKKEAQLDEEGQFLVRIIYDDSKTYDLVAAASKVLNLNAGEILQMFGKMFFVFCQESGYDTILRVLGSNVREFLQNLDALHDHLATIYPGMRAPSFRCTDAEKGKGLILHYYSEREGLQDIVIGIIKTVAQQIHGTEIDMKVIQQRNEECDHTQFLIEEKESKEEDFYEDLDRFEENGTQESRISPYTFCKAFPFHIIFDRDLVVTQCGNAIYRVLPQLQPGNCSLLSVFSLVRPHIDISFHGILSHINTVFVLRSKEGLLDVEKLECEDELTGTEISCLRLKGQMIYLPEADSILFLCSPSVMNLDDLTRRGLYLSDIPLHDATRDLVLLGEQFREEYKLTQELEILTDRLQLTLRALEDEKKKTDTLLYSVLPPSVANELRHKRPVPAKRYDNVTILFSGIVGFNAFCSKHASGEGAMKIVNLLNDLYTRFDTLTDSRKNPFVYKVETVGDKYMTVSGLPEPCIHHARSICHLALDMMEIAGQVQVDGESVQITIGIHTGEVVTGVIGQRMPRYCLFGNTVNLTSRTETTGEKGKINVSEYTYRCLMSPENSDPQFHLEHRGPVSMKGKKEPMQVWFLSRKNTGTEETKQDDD
T1 sequence (Q02108 1-690): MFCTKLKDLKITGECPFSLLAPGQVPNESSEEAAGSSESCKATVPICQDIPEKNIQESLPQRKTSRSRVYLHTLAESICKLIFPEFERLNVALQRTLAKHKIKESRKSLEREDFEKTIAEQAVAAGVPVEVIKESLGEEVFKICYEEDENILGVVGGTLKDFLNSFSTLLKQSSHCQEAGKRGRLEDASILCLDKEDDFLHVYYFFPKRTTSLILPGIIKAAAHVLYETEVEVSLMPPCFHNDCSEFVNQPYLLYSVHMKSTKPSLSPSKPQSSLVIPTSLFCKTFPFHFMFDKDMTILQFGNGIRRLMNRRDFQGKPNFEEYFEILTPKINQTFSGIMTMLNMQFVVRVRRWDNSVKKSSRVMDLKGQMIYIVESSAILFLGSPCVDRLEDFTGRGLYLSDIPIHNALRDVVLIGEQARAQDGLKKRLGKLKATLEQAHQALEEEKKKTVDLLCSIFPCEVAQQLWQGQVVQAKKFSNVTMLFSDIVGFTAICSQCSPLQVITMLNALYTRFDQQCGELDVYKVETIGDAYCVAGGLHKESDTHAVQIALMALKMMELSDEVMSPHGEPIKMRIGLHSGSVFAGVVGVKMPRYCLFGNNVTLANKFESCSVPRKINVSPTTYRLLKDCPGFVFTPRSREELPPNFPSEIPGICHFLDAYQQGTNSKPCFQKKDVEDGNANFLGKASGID
The experiment can be described thus: sGC-HEK-cGMP assay. It counts as cell-based. As to conditions: HEK293 cells, 10 μM SNP, percentage of sGC activity obtained with positive control BAY 41-2272 (= 100%); for Emax at 10 µM: compound at 10 μM; for Emax at 30 µM: compound at 30 μM. As for the experimental part: Human embryonic kidney cells (HEK293), endogenously expressing soluble guanylate cyclase (sGC), were used to evaluate the activity of the test compounds. Compounds stimulating the sGC receptor should cause an increase in the intracellular concentration of cGMP. HEK 293 cells were seeded in Dulbecco's Modification of Eagle's Medium supplemented with fetal bovine serum (10% final) and L-glutamine (2 mM final) in a 200 μL volume at a density of 1×10^5 cells/well in a poly-D-lysine coated 96 well flat bottom plate and grown overnight at 37° C. Medium was aspirated and cells were washed with 1× Hank's Buffered Saline Salt Solution (200 μL). Cells were then incubated for 15 minutes at 37° C. with 0.5 mM 3-isobutyl-1-methylxanthine (200 μL). Test article was then added to the assay mixture (2 μL) and incubated in the presence of 10 μM Sodium Nitroprusside (SNP) at 37° C. for 10 minutes. After the 10 minute incubation, the assay mixture was aspirated and 0.1M HCl (200 μL) was added to the cells. The plate was incubated at 4° C. for 30 minutes in the 0.1M HCl to stop the reaction and lysed the cells. The plates were then centrifuged at 1,200 g for 5 minutes at room temperature. Supernatants were collected and transferred to a new flat bottom 96 well plate for analysis. Vehicle controls were carried out using DMSO (1%). A known sGC stimulator, BAY 41-2272, was used as the positive control.
Samples were diluted with an equal volume of 1 M Ammonium Acetate (pH 7) to neutralize samples for better chromatography. A 2×cGMP standard curve was prepared in 0.1 M HCl and then diluted with an equal volume of 1 M Ammonium Acetate, with the following final concentrations in nM: 1024, 512, 256, 128, 64, 32, 16, 8, 4, 2, 1.cGMP concentrations were determined from each sample using the LC/MS conditions (Table 2 below) and calculated standard curve. EC50 values were calculated from concentration-response curves generated with GraphPad Prism Software.
The biological activities of some of the compounds according to Formula IA or Formula IB determined with the sGC-HEK assay are summarized in Table 3 below.

The target of experiment [2] is T2, Human soluble guanylate cyclase enzyme (hsGC) (Homo sapiens, UniProt Q02108+Q02153).
T2 construct: purchased Enzo Inc. ALX-201-177
T2 sequence (Q02153 1-619): T1 sequence (Q02153 1-619)
T2 sequence (Q02108 1-690): T1 sequence (Q02108 1-690)
Kind of experiment: Purified human sGC enzyme activity assay (with or without SNP). It counts as biochemical. To be noted: 30 μM compound; for sGC Enzyme Activity Increase at 30 μM with SNP: 1 μM SNP, specific activity vs DMSO and SNP; for sGC Enzyme Activity Increase at 30 μM without SNP: specific activity vs DMSO control. As for the experimental part: Human soluble guanylate cyclase enzyme (hsGC) obtained from Enzo Inc. (P/N: ALX-201-177) was used to evaluate the activity of test compounds. The assay reactions contained 0.1 M Tris (pH 8.0), 0.5 mg/mL BSA (pH 8.0), 2 mM DTT, 2 mM MgCl2, 300 μM GTP, 1 mM 3-isobutyl-1-methylxanthine (IBMX) and 5 ng human soluble guanylate cyclase enzyme. Test compounds in DMSO were then added (2 μL, 10 or 30 μM final concentration) and incubated (200 μL, 96-well plate format) at 37° C. for 30 minutes. The controls were carried out using 2 μL DMSO. After the 30 minute incubation, the reaction was stopped with the addition of 200 μL of cold methanol. The plate was then centrifuged at 3,200 rpm for 10 minutes at room temperature. Supernatants (200 μL) were collected and transferred to a new 96 well plate for analysis.
An 8 point cGMP (Sigma-Aldrich P/N: G6129) standard curve was prepared in assay buffer ranging from 0.156-20 μM. Samples for the cGMP standard curve were then diluted with an equal volume of methanol resulting in final cGMP concentrations of 0.078-10 μM.
The cGMP standard curve was generated using GraphPad Prism Software.
Calculations: Specific Activity was determined by the amount of cGMP formed (nmoles) per mg of sGC per min. Enzyme activity “fold-change” was calculated by dividing the Specific Activity for a test compound by the Specific Activity of DMSO control.
The enzymatic activity fold-change of the purified human sGC enzyme determined in the presence of each of the test compounds individually at 10 or 30 μm without the addition of sodium nitroprusside (SNP), a nitric oxide donor, is presented in Table 5.
Enzyme assays were also performed as described above, but in the presence of 1 μM sodium nitroprusside (SNP). Enzymatic activity fold-changes are reported for selected test compounds in the presence of both SNP and the test compound. These were calculated by dividing the specific activity (activity increase) for the test compound dissolved in DMSO and SNP over the specific activity for the mixture of DMSO and SNP.

As for `Fc1ccccc1Cn1nc(-c2ccccn2)nc1-c1ccon1` [Compound I-58, 3-(1-(2-fluorobenzyl)-3-(pyridin-2-yl)-1H-1,2,4-triazol-5-yl)isoxazole], in experiment [1], the Emax at 10 µM lay within 40 to 60% and the Emax at 30 µM lay in the range of 60 to 80%. Also, in experiment [2], the “sGC Enzyme Activity Increase at 30 μM with SNP” value is “D (D = 5 to <10 fold increase)” and the “sGC Enzyme Activity Increase at 30 μM without SNP” value is “C (C = 2 to <5 fold increase)”.
The corresponding values for `Fc1ccccc1Cn1nc(-c2nccs2)nc1-c1cccc(Br)n1` [Compound I-18, 2-(5-(6-bromopyridin-2-yl)-1-(2-fluorobenzyl)-1H-1,2,4-triazol-3-yl)thiazole] are 0 to 5%, 0 to 5%, “C (C = 2 to <5 fold increase)” and “B (B = 1 to <2 fold increase)”.
As for `Fc1ccccc1Cn1nc(-c2cnccn2)nc1-c1cscn1` [Compound I-56], in experiment [1], the Emax at 10 µM fell in the range of 10 to 20% and the maximum response (Emax) at 30 µM was in the range of 40 to 60%. In experiment [2], the “sGC Enzyme Activity Increase at 30 μM with SNP” value is listed as “D (D = 5 to <10 fold increase)” and the “sGC Enzyme Activity Increase at 30 μM without SNP” value was “B (B = 1 to <2 fold increase)”.
In experiment [1], `Fc1ccccc1Cn1nc(-c2ncccn2)nc1-c1ccco1` [Compound I-11] returned an Emax at 10 µM of 10 to 20% and an Emax at 30 µM of 10 to 20%. In experiment [2], the “sGC Enzyme Activity Increase at 30 μM with SNP” value is listed as “C (C = 2 to <5 fold increase)” and the “sGC Enzyme Activity Increase at 30 μM without SNP” value is listed as “C (C = 2 to <5 fold increase)”.
In experiment [1], `Fc1ccccc1Cn1nc(-c2cc(Br)ccn2)nc1-c1cocn1` [Compound I-54, 4-(3-(4-bromopyridin-2-yl)-1-(2-fluorobenzyl)-1H-1,2,4-triazol-5-yl)oxazole] registered an Emax at 10 µM of 20 to 40% and an Emax at 30 µM of 40 to 60%. In experiment [2], the “sGC Enzyme Activity Increase at 30 μM with SNP” value is given as “D (D = 5 to <10 fold increase)” and the “sGC Enzyme Activity Increase at 30 μM without SNP” value is listed as “C (C = 2 to <5 fold increase)”.
In experiment [1], `Fc1ccccc1Cn1nc(-c2cc(Br)ccn2)nc1-c1cscn1` [Compound I-51, 4-(3-(4-bromopyridin-2-yl)-1-(2-fluorobenzyl)-1H-1,2,4-triazol-5-yl)thiazole] showed an Emax at 10 µM of 20 to 40% and an Emax at 30 µM of 20 to 40%. Also, in experiment [2], the “sGC Enzyme Activity Increase at 30 μM with SNP” value is recorded as “E (E = 10 to <20 fold increase)” and the “sGC Enzyme Activity Increase at 30 μM without SNP” value is given as “C (C = 2 to <5 fold increase)”.
With `Fc1ccccc1Cn1nc(-c2ccccn2)nc1Br` [Compound I-16, 2-(5-bromo-1-(2-fluorobenzyl)-1H-1,2,4-triazol-3-yl)pyridine], in experiment [1], the Emax at 10 µM lay in the range of 0 to 5% and the maximal response (Emax) at 30 µM lay within 5 to 10%. Besides, in experiment [2], the “sGC Enzyme Activity Increase at 30 μM with SNP” value is recorded as “C (C = 2 to <5 fold increase)” and the “sGC Enzyme Activity Increase at 30 μM without SNP” value was “B (B = 1 to <2 fold increase)”.
The corresponding values for `COC(=O)Nc1c(N)nc(-c2nc(-c3nccs3)n(Cc3ccccc3F)n2)nc1N` [Compound I-60, methyl 4,6-diamino-2-(1-(2-fluorobenzyl)-5-(thiazol-2-yl)-1H-1,2,4-triazol-3-yl)pyrimidin-5-ylcarbamate] are 10 to 20%, 20 to 40%, “D (D = 5 to <10 fold increase)” and “B (B = 1 to <2 fold increase)”.
In experiment [1], `Fc1ccccc1Cn1nc(-c2nccs2)nc1-c1cc(Br)ccn1` [Compound I-37, 2-(5-(4-bromopyridin-2-yl)-1-(2-fluorobenzyl)-1H-1,2,4-triazol-3-yl)thiazole] gave an Emax at 10 µM of 10 to 20% and an Emax at 30 µM of 20 to 40%. Besides, in experiment [2], the “sGC Enzyme Activity Increase at 30 μM with SNP” value is reported as “D (D = 5 to <10 fold increase)” and the “sGC Enzyme Activity Increase at 30 μM without SNP” value was “C (C = 2 to <5 fold increase)”.
For `Fc1ccccc1Cn1nc(-c2cscn2)nc1-c1cc(Br)ccn1` [Compound I-52, 4-(5-(4-bromopyridin-2-yl)-1-(2-fluorobenzyl)-1H-1,2,4-triazol-3-yl)thiazole], in experiment [1], the Emax at 10 µM fell in the range of 0 to 5% and the Emax at 30 µM fell in the range of 0 to 5%. In experiment [2], the “sGC Enzyme Activity Increase at 30 μM with SNP” value is recorded as “B (B = 1 to <2 fold increase)” and the “sGC Enzyme Activity Increase at 30 μM without SNP” value is “B (B = 1 to <2 fold increase)”.
In experiment [1], `NC(=O)c1ccnc(-c2nc(-c3nccs3)n(Cc3ccccc3F)n2)c1` [Compound I-64, 2-(1-(2-fluorobenzyl)-5-(thiazol-2-yl)-1H-1,2,4-triazol-3-yl)isonicotinamide] showed an Emax at 10 µM of 10 to 20% and an Emax at 30 µM of 5 to 10%.
With `Nc1ccnc(-c2nc(-c3cocn3)n(Cc3ccccc3F)n2)c1` [Compound I-66, 2-(1-(2-fluorobenzyl)-5-(oxazol-4-yl)-1H-1,2,4-triazol-3-yl)pyridin-4-amine], in experiment [1], the Emax at 10 µM lay in the range of 40 to 60% and the Emax at 30 µM was in the range of 40 to 60%.
